Columns and labels:
786-0 = assay: NCI-60 single dose screen, sulforhodamine B; format: cell-based, human; conditions: Renal cancer 786-0; single dose 10^−5 M
How it was run: (§1)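 Compounds were tested at a single 10 µM dose (DMSO solution) after cells had been seeded and grown for 1 day. Following 2 further days of exposure, cells were fixed and stained with sulforhodamine B. Growth inhibition is relative to untreated cells and a time-zero control.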

ACHN = assay: NCI-60 single dose screen, sulforhodamine B; format: cell-based, human; conditions: Renal cancer ACHN; single dose 10^−5 M
How it was run: as §1

CCRF-CEM = assay: NCI-60 single dose screen, sulforhodamine B; format: cell-based, human; conditions: Leukaemia CCRF-CEM; single dose 10^−5 M
How it was run: as §1

COLO 205 = assay: NCI-60 single dose screen, sulforhodamine B; format: cell-based, human; conditions: Colon cancer COLO 205; single dose 10^−5 M
How it was run: as §1

DU-145 = assay: NCI-60 single dose screen, sulforhodamine B; format: cell-based, human; conditions: Prostate cancer DU-145; single dose 10^−5 M
How it was run: as §1

EKVX = assay: NCI-60 single dose screen, sulforhodamine B; format: cell-based, human; conditions: Non-small cell lung cancer EKVX; single dose 10^−5 M
How it was run: as §1

HCC-2998 = assay: NCI-60 single dose screen, sulforhodamine B; format: cell-based, human; conditions: Colon cancer HCC-2998; single dose 10^−5 M
How it was run: as §1

HOP-62 = assay: NCI-60 single dose screen, sulforhodamine B; format: cell-based, human; conditions: Non-small cell lung cancer HOP-62; single dose 10^−5 M
How it was run: as §1

HS 578T = assay: NCI-60 single dose screen, sulforhodamine B; format: cell-based, human; conditions: Breast cancer HS 578T; single dose 10^−5 M
How it was run: as §1

HT29 = assay: NCI-60 single dose screen, sulforhodamine B; format: cell-based, human; conditions: Colon cancer HT29; single dose 10^−5 M
How it was run: as §1

K-562 = assay: NCI-60 single dose screen, sulforhodamine B; format: cell-based, human; conditions: Leukaemia K-562; single dose 10^−5 M
How it was run: as §1

KM12 = assay: NCI-60 single dose screen, sulforhodamine B; format: cell-based, human; conditions: Colon cancer KM12; single dose 10^−5 M
How it was run: as §1

LOX IMVI = assay: NCI-60 single dose screen, sulforhodamine B; format: cell-based, human; conditions: Melanoma LOX IMVI; single dose 10^−5 M
How it was run: as §1

M14 = assay: NCI-60 single dose screen, sulforhodamine B; format: cell-based, human; conditions: Melanoma M14; single dose 10^−5 M
How it was run: as §1

MDA-MB-435 = assay: NCI-60 single dose screen, sulforhodamine B; format: cell-based, human; conditions: Melanoma MDA-MB-435; single dose 10^−5 M
How it was run: as §1

MOLT-4 = assay: NCI-60 single dose screen, sulforhodamine B; format: cell-based, human; conditions: Leukaemia MOLT-4; single dose 10^−5 M
How it was run: as §1

NCI-H226 = assay: NCI-60 single dose screen, sulforhodamine B; format: cell-based, human; conditions: Non-small cell lung cancer NCI-H226; single dose 10^−5 M
How it was run: as §1

NCI-H23 = assay: NCI-60 single dose screen, sulforhodamine B; format: cell-based, human; conditions: Non-small cell lung cancer NCI-H23; single dose 10^−5 M
How it was run: as §1

NCI-H322M = assay: NCI-60 single dose screen, sulforhodamine B; format: cell-based, human; conditions: Non-small cell lung cancer NCI-H322M; single dose 10^−5 M
How it was run: as §1

NCI-H460 = assay: NCI-60 single dose screen, sulforhodamine B; format: cell-based, human; conditions: Non-small cell lung cancer NCI-H460; single dose 10^−5 M
How it was run: as §1

NCI/ADR-RES = assay: NCI-60 single dose screen, sulforhodamine B; format: cell-based, human; conditions: Ovarian cancer NCI/ADR-RES; single dose 10^−5 M
How it was run: as §1

OVCAR-3 = assay: NCI-60 single dose screen, sulforhodamine B; format: cell-based, human; conditions: Ovarian cancer OVCAR-3; single dose 10^−5 M
How it was run: as §1

OVCAR-8 = assay: NCI-60 single dose screen, sulforhodamine B; format: cell-based, human; conditions: Ovarian cancer OVCAR-8; single dose 10^−5 M
How it was run: as §1

RPMI-8226 = assay: NCI-60 single dose screen, sulforhodamine B; format: cell-based, human; conditions: Leukaemia RPMI-8226; single dose 10^−5 M
How it was run: as §1

RXF 393 = assay: NCI-60 single dose screen, sulforhodamine B; format: cell-based, human; conditions: Renal cancer RXF 393; single dose 10^−5 M
How it was run: as §1

SK-MEL-2 = assay: NCI-60 single dose screen, sulforhodamine B; format: cell-based, human; conditions: Melanoma SK-MEL-2; single dose 10^−5 M
How it was run: as §1

SN12C = assay: NCI-60 single dose screen, sulforhodamine B; format: cell-based, human; conditions: Renal cancer SN12C; single dose 10^−5 M
How it was run: as §1

SNB-19 = assay: NCI-60 single dose screen, sulforhodamine B; format: cell-based, human; conditions: CNS cancer SNB-19; single dose 10^−5 M
How it was run: as §1

SW-620 = assay: NCI-60 single dose screen, sulforhodamine B; format: cell-based, human; conditions: Colon cancer SW-620; single dose 10^−5 M
How it was run: as §1

U251 = assay: NCI-60 single dose screen, sulforhodamine B; format: cell-based, human; conditions: CNS cancer U251; single dose 10^−5 M
How it was run: as §1

UO-31 = assay: NCI-60 single dose screen, sulforhodamine B; format: cell-based, human; conditions: Renal cancer UO-31; single dose 10^−5 M
How it was run: as §1

SMILES | GI% at 10^−5 M (786-0) | GI% at 10^−5 M (ACHN) | GI% at 10^−5 M (CCRF-CEM) | GI% at 10^−5 M (COLO 205) | GI% at 10^−5 M (DU-145) | GI% at 10^−5 M (EKVX) | GI% at 10^−5 M (HCC-2998) | GI% at 10^−5 M (HOP-62) | GI% at 10^−5 M (HS 578T) | GI% at 10^−5 M (HT29) | GI% at 10^−5 M (K-562) | GI% at 10^−5 M (KM12) | GI% at 10^−5 M (LOX IMVI) | GI% at 10^−5 M (M14) | GI% at 10^−5 M (MDA-MB-435) | GI% at 10^−5 M (MOLT-4) | GI% at 10^−5 M (NCI-H226) | GI% at 10^−5 M (NCI-H23) | GI% at 10^−5 M (NCI-H322M) | GI% at 10^−5 M (NCI-H460) | other results
O=c1c2ccccc2nc(COc2ccccc2)n1N=CC=Cc1ccccc1 [Compound 6b, 2-(phenoxymethyl)-3-((3-phenylallylidene)amino)quinazolin-4(3H)-one] | – (– means GI < 10%) | – (– means GI < 10%) | 15.66% | – (– means GI < 10%) | – (– means GI < 10%) | 13.78% | – (– means GI < 10%) | – (– means GI < 10%) | – (– means GI < 10%) | – (– means GI < 10%) | – (– means GI < 10%) | – (– means GI < 10%) | 27.86% | – (– means GI < 10%) | – (– means GI < 10%) | – (– means GI < 10%) | – (– means GI < 10%) | – (– means GI < 10%) | – (– means GI < 10%) | – (– means GI < 10%) | GI% at 10^−5 M (NCI/ADR-RES): – (– means GI < 10%); GI% at 10^−5 M (OVCAR-3): – (– means GI < 10%); GI% at 10^−5 M (OVCAR-8): – (– means GI < 10%); GI% at 10^−5 M (RPMI-8226): 12.52%; GI% at 10^−5 M (RXF 393): – (– means GI < 10%); GI% at 10^−5 M (SK-MEL-2): – (– means GI < 10%); GI% at 10^−5 M (SN12C): 12.39%; GI% at 10^−5 M (SNB-19): 17.13%; GI% at 10^−5 M (SW-620): – (– means GI < 10%); GI% at 10^−5 M (U251): – (– means GI < 10%); GI% at 10^−5 M (UO-31): 10.2%; melting point: 211 to 213 °C
O=C(CN1CCN(c2ccccc2)CC1)Nn1c(COc2ccccc2)nc2ccccc2c1=O [Compound 8b, N-(4-oxo-2-(phenoxymethyl)quinazolin-3(4H)-yl)-2–(4-phenylpiperazin-1-yl)acetamid] | – (– means GI < 10%) | – (– means GI < 10%) | – (– means GI < 10%) | – (– means GI < 10%) | – (– means GI < 10%) | – (– means GI < 10%) | – (– means GI < 10%) | – (– means GI < 10%) | 10.4% | – (– means GI < 10%) | – (– means GI < 10%) | – (– means GI < 10%) | – (– means GI < 10%) | – (– means GI < 10%) | – (– means GI < 10%) | – (– means GI < 10%) | – (– means GI < 10%) | 10.01% | – (– means GI < 10%) | – (– means GI < 10%) | GI% at 10^−5 M (NCI/ADR-RES): – (– means GI < 10%); GI% at 10^−5 M (OVCAR-3): – (– means GI < 10%); GI% at 10^−5 M (OVCAR-8): – (– means GI < 10%); GI% at 10^−5 M (RPMI-8226): – (– means GI < 10%); GI% at 10^−5 M (RXF 393): – (– means GI < 10%); GI% at 10^−5 M (SK-MEL-2): – (– means GI < 10%); GI% at 10^−5 M (SN12C): – (– means GI < 10%); GI% at 10^−5 M (SNB-19): – (– means GI < 10%); GI% at 10^−5 M (SW-620): – (– means GI < 10%); GI% at 10^−5 M (U251): – (– means GI < 10%); GI% at 10^−5 M (UO-31): 20.18%; melting point: 115 to 117 °C

From paper PMC8843100, “Development of newly synthesised quinazolinone-based CDK2 inhibitors with potent efficacy against melanoma” (Journal of Enzyme Inhibition and Medicinal Chemistry, 2022)
